Source: US7579018B2, “Microbiological control in aqueous systems” (Albemarle Corporation, priority 2000, dated 2009)

Legend:
[1] = test system: heterotrophic bacteria; assay: Cooling tower field trial, Example 2: heterotrophic bacteria plate counts; settings: slug dose 3 times/week, 0.5 ppm free Cl2; cooling tower water
Description: The effectiveness of DBDMH and of BCDMH in microbiological control in cooling tower water was investigated in comparative tests. The cooling tower consisted of two 500-ton units in a crossflow design. The total system-contained volume was 14,000 gallons, and the tower contained medium efficiency film fill. Water from the tower cooled the coils of two 300-ton air conditioners (chillers). The tower typically operated at a pH of about 9.1 and 4 cycles of concentration. Blowdown was controlled by conductivity. Make-up water consisted of softened city water and which was of good quality. The make-up water was very low in calcium (<10 mg/L) but high in pH (8.7). The alkalinity was 145 mg/L (as CaCO3), and the silica level was 28 mg/L. The tower employed a conventional polyphosphate/molybdate/phosphonate program to provide corrosion and deposit control.
The BCDMH (20 lbs) was introduced to the water using 20-gram, 1-inch tablets charged to a solid halogen feeder (Neptune model BT-40, Neptune Chemical Pump Co., Inc., Lansdale, Pa.). Before each dose, the cooling tower water was sampled and enumerated for heterotrophic bacteria plate counts. Then the tower was slug dosed three times a week with BCDMH. Slug dosing was accomplished by diverting through the feeder containing the tablets a sidestream of the recirculating water for about 1 to 5 hours until a “free chlorine” dose of about 0.5 mg/L (as “free chlorine”) was obtained. The “total chlorine” dose was measured at the same time. After each dose the cooling water was sampled and enumerated for heterotrophic bacteria plate counts. As necessary, the feeder was replenished with more BCDMH tablets.
For example, before the biocide dose the bacteria levels in the bulk water ranged from 10^5 to 10^4 CFUs/mL. After the biocide dose the bacteria levels in the bulk water were reduced to 10^4 to 10^3.
After emptying the feeder of BCDMH tablets, 20 lbs of DBDMH granules was charged into the feeder. Thereupon the same procedure as described above for the BCDMH was carried out except for the fact that is was unnecessary to add any additional DBDMH to the feeder during the 30-day test period. In fact, the total weight of DBDMH consumed during the test was only 7 lbs.

[2] = “free chlorine” (Hach Method 8021) and “total chlorine” (Hach Method 8167) in dosed simulated cooling water, Example 1; type: physicochemical; settings: for Free Cl2 / Total Cl2 / % hydrolysis to Free Cl2: simulated cooling water pH 9.1, 38° C.
Description: The standard tests for determination of “free chlorine” and “total chlorine” are based on classical test procedures devised by Palin in 1974. See A. T. Palin, “Analytical Control of Water Disinfection With Special Reference to Differential DPD Methods For Chlorine, Chlorine Dioxide, Bromine, Iodine and Ozone”, J. Inst. Water Eng., 1974, 28, 139. While there are various modernized versions of the Palin procedures, the version of the tests for “free chlorine” and “total chlorine” used and to be used as the standard in connection with this invention, are fully described in Hach Water Analysis Handbook, 3rd edition, copyright 1997. The procedure for “free chlorine” is identified in that publication as Method 8021 appearing on page 335, whereas the procedure for “total chlorine” is Method 8167 appearing at page 379. Briefly, the “free chlorine” test involves introducing to the halogenated water a powder comprising DPD indicator powder and a buffer. “Free chlorine” present in the water reacts with the DPD indicator to produce a red to pink coloration. The intensity of the coloration depends upon the concentration of “free chlorine” species present in the sample. This intensity is measured by a calorimeter calibrated to transform the intensity reading into a “free chlorine” value in terms of mg/L Cl2. Similarly, the “total chlorine” test also involves use of DPD indicator and buffer. In this case, KI is present with the DPD and buffer whereby the halogen species present, including nitrogen-combined halogen, reacts with KI to yield iodine species which turn the DPD indicator to red/pink. The intensity of this coloration depends upon the sum of the “free chlorine” species and all other halogen species present in the sample. Consequently, this coloration is transformed by the colorimeter into a “total chlorine” value expressed as mg/L Cl2.
DBDAH and BCDMH Test Procedure • 1. To determine the amount of species present in the water which respond to the “free chlorine” and “total chlorine” tests, the water sample should be analyzed within a few minutes of being taken, and preferably immediately upon being taken. • 2. Hach Method 8021 for testing the amount of species present in the water sample which respond to the “free chlorine” test involves use of the Hach Model DR 2010 calorimeter. The stored program number for chlorine determinations is recalled by keying in “80” on the keyboard, followed by setting the absorbance wavelength to 530 nm by rotating the dial on the side of the instrument. Two identical sample cells are filled to the 10 mL mark with the water under investigation. One of the cells is arbitrarily chosen to be the blank. Using the 10 mL cell riser, this is admitted to the sample compartment of the Hach Model DR 2010, and the shield is closed to prevent stray light effects. Then the ZERO key is depressed. After a few seconds, the display registers 0.00 mg/L Cl2. To second cell, the contents of a DPD Free Chlorine Powder Pillow are added. This is shaken for 10-20 seconds to mix, as the development of a pink-red color indicates the presence of species in the water which respond positively to the DPD test reagent. Within one minute of adding the DPD “free chlorine” reagent to the 10 mL of water in the sample cell, the blank cell used to zero the instrument is removed from the cell compartment of the Hach Model DR 2010 and replaced with the test sample to which the DPD “free chlorine” test reagent was added. The light shield is then closed as was done for the blank, and the READ key is depressed. The result, in mg/L Cl2 is shown on the display within a few seconds. This is the “free chlorine” level of the water sample under investigation. • 3. Hach Method 8167 for testing the amount of species present in the water sample which respond to the “total chlorine” test involves use of the Hach Model DR 2010 calorimeter. […]

[3] = dosed to 1 mg/L as total chlorine, Time 0 hr
[4] = Time 0.5 hr, percentage of Time 0 value
[5] = Time 1 hr, percentage of Time 0 value
[6] = Time 1.5 hr, percentage of Time 0 value
[7] = Time 2 hr, percentage of Time 0 value
[8] = Time 3 hr, percentage of Time 0 value
[9] = Time 4 hr, percentage of Time 0 value
[10] = Time 5 hr, percentage of Time 0 value
[11] = Time 6 hr, percentage of Time 0 value

SMILES: CC1(C)C(=O)N(Br)C(=O)N1Br [DBDMH, 1,3-dibromo-5,5-dimethylhydantoin]
- Bacteria reduction [1]: 1.5-2 logs
- Free Cl2 [2, 3]: 98.8
- Total Cl2 [2, 3]: 100
- % hydrolysis to Free Cl2 ([2]; Time 0 hr): 98.8%
- % hydrolysis to Free Cl2 ([2]; Time 0.5 hr): 95.6%
- Free Cl2 [2, 4]: 100%
- Total Cl2 [2, 4]: 104%
- % hydrolysis to Free Cl2 ([2]; Time 1 hr): 97.3%
- Free Cl2 [2, 5]: 85.1%
- Total Cl2 [2, 5]: 87.3%
- % hydrolysis to Free Cl2 ([2]; Time 1.5 hr): 100%
- Free Cl2 [2, 6]: 87.3%
- Total Cl2 [2, 6]: 87.3%
- % hydrolysis to Free Cl2 ([2]; Time 2 hr): 97.2%
- Free Cl2 [2, 7]: 81.6%
- Total Cl2 [2, 7]: 83.9%
- % hydrolysis to Free Cl2 ([2]; Time 3 hr): 93.8%
- Free Cl2 [2, 8]: 70.1%
- Total Cl2 [2, 8]: 74.7%
- % hydrolysis to Free Cl2 ([2]; Time 4 hr): 93.8%
- Free Cl2 [2, 9]: 65.5%
- Total Cl2 [2, 9]: 66.6%
- % hydrolysis to Free Cl2 ([2]; Time 5 hr): 96.4%
- Free Cl2 [2, 10]: 60.1%
- Total Cl2 [2, 10]: 63.2%
- % hydrolysis to Free Cl2 ([2]; Time 6 hr): 96.3%
- Free Cl2 [2, 11]: 59.8%
- Total Cl2 [2, 11]: 62%
- “total chlorine” level higher than the “free chlorine level” of the water ([2]; water of pH of at least 8 freshly treated): no more than 10%
